# Measurements published in US7612107B2, “Treatment and inhibition of disease conditions using flexible heteroarotinoids” (The Board of Regents of the University of Oklahoma, priority 2005, dated 2009).
# Experiments:
# [1] = test system: NCI human tumor cell line panel; assay: SHetA2 cytotoxicity in NCI human tumor cell line panel; type: cell-based
# Method: The SHetA2 compound was evaluated in the National Cancer Institute (NCI) human tumor cell line panel by the Developmental Therapeutics Program (DTP). The human tumor cell lines were grown in RPMI 1640 medium containing 5% fetal bovine serum and 2 mM L-glutamine. Cells were inoculated into 96 well microtiter plates at densities ranging from 5,000 to 40,000 cells/well depending on the doubling time of individual cell lines and incubated for 24 h prior to addition of SHetA2. After 24 h, two plates of each cell line were fixed in situ with TCA, to represent a measurement of the cell population for each cell line at the time of drug addition (Tz). Drugs were dissolved in dimethyl sulfoxide (DMSO) and diluted in complete medium containing 50 μg/ml gentamicin, prior to addition to the culture wells. […] […] The absorbance was read on an automated plate reader at a wavelength of 515 nm. Using the seven absorbance measurements (time zero, (Tz), control growth, (C), and test growth in the presence of drug at the five concentration levels (Ti)), the GI50 was calculated from [(Ti−Tz)/(C−Tz)]×100=50. […]
# [2] = test system: ovarian cancer cells; assay: Microarray analysis of gene expression in SHetA2-treated ovarian cancer cells; type: cell-based, Homo sapiens
# Method: Microarray analysis was conducted to determine specific disease causing genes which were expressed at higher (>1 fold) or lower (<1 fold) levels than normal in ovarian cancer cells treated with SHetA2 (see Table 6).
# [3] = test system: EAhy.926 endothelial cells; assay: Endothelial tube branching on matrigel; type: cell-based; conditions: 1, 5 and 10 μM; 20 hours
# Method: (§1) The graph on the left provides quantification of the endothelial branches for each treatment dose.
# (§2) The increased thickness of the vessels at 1 μM and the increasing proportions of solitary clumps of cells at 5 and 10 μM indicate that SHetA2 is inhibiting endothelial cell migration. To determine if this anti-angiogenic activity was due to growth inhibition or cytotoxicity. The viability of the endothelial cells treated with SHetA2 for 24 hours was evaluated. […] This confirms the therapeutic ratio observed in previous studies.
# [4] = test system: EAhy.926 endothelial cells; assay: Growth/viability of endothelial cells versus ovarian cancer cell lines; type: cell-based; conditions: 24 hours
# Method: as §1, §2
# [5] = test system: blood vessel density in bFGF/VEGF-treated CAMs; assay: Chorioallantoic membrane (CAM) assay; type: in vivo; conditions: 5 μM SHetA2
# Method: FIG. 8. Effect of 5 μM SHetA2 on blood vessel density in the CAM assay. The mean±SEM blood vessel density per treatment as compared to bFGF/VEGF-treated CAMs; *=p<0.05 and **=p<0.001 as compared to bFGF/VEGF-treated CAMs as determined by one-way ANOVA and Neuman-Keuls post-test.
# The CAM assay that was used is based upon the original procedure by Jakob et al. (36) with modifications made by our laboratory (37, 38) (see FIG. 8).
# [6] = Genbank AI358954, Neuromuscular Diseases
smiles,measurement,setting,value
CC1(C)CC(C)(C)c2cc(NC(=S)Nc3ccc([N+](=O)[O-])cc3)ccc2S1 [SHetA2],percent growth levels,"[1]; 10 and 100 μM SHetA2, majority of cell lines",negative percent growth levels
same,GI50 values,"[1]; 55 cell lines, 9 cancer types, 48 h",micromolar range
same,Fold: Putative c-Myc-responsive (RCL),"[2]; Genbank AA523444, Cancer",0.41 Fold
same,"Fold: Myeloidlymphoid or mixed-lineage leukemia (trithorax (Drosophila) homolog); translocated to, 4 (HGC6.3)","[2]; Genbank AB016902.2, Cancer",5.07 Fold
same,Fold: Vascular endothelial growth factor (VEGF),[2]; Genbank AF022375.1,0.47 Fold
same,"Fold: METH1 protein (METH1), contain a repeated amino acid motif homologous to the anti-angiogenic type 1 repeats of thromospondin-1 (TSP1)",[2]; Genbank AF060152.1,0.39 Fold
same,Fold: EHT protein,"[2]; Genbank AF068266.1, Cancer",2.80 Fold
same,Fold: Familial Mediterranean fever locus region,"[2]; Genbank AF098968.1, Autoimmune Diseases",0.30 Fold
same,Fold: Myeloidlymphoid leukemia 2 (MLL2),"[2]; Genbank AF105279.1, Cancer",0.31 Fold
same,Fold: Glypican-6 (GPC6),[2]; Genbank AF111178.1,2.07 Fold
same,"Fold: Hemochromatosis splice variant 495-2314del, Iron Storage Disorder","[2]; Genbank AF144243.1, Storage and Metabolism Deficiencies",3.01 Fold
same,Fold: BAGE2 antigen (BAGE2),"[2]; Genbank AF218570.1, Cancer",0.34 Fold
same,Fold: Prothymosin alpha (PTMA),"[2]; Genbank AF257099, Polycystic Kidney Disease",2.60 Fold
same,"Fold: Deleted in lymphocytic leukemia, 2/DEF = Homo sapiens BCMS-upstream neighbor (BCMSUN)","[2]; Genbank AF264787.1, Cancer",0.33 Fold
same,"Fold: Deleted in lymphocytic leukemia, BCMS-upstream neighbor (BCMSUN) (DLEU2)","[2]; Genbank AF264787.1, Cancer",0.40 Fold
same,Fold: PNAS-128 in leukemia,"[2]; Genbank AF277186.1, Cancer",0.36 Fold
same,Fold: BAM in multiple myeloma,"[2]; Genbank AF455755.1, Cancer",3.05 Fold
same,Fold: Cervical cancer suppressor gene-4 protein (HCCS-4),"[2]; Genbank AF465843.1, Cancer",2.06 Fold
same,"Fold: FLJ23538 fis, highly similar to BETA2 Human MEN1(Multiple Endocrine Neoplasia) region clone epsilonbeta (BETA2)","[2]; Genbank AI042152, Cancer",0.31 Fold
same,"Fold: ESTs, Moderately similar to S72399 ras-homolog GTPase rab28 isoform S","[2]; Genbank AI080106, Cancer",7.75 Fold
same,Fold: Prostate cancer associated protein 5 (PCANAP5),"[2]; Genbank AI299378, Cancer",0.23 Fold
same,"Fold: ESTs, Weakly similar to DRPL_Human Atrophin-1 (DRPL) in Huntington's disease (HD) and dentatorubral and pallidoluysian atrophy (DRPLA) dentatorubral-pallidoluysian atrophy",[2]; [6],2.52 Fold
same,"Fold: ESTs, Weakly similar to DRPL_Human Atrophin-1 (DRPL) in dentatorubral-pallidoluysian atrophy",[2]; [6],2.52 Fold
same,Fold: B-cell CLLlymphoma 3 (BCL3),"[2]; Genbank AI829875, Cancer",2.58 Fold
same,"Fold: Lipoma cell line Li-538SV40 ectopic sequence from HMGI-C fusion mRNA, 3 sequence (LI)","[2]; Genbank AI990940, Cancer",0.47 Fold
same,"Fold: Butyrophilin, subfamily 3, member A2 (BTN3A2) milk protein","[2]; Genbank AI991252, Autoimmune Diseases",2.31 Fold
same,"Fold: Disintegrin-like and metalloprotease (reprolysin type) with thrombospondin type 1 motif, highly similar to Homo sapiens metalloproteinase with thrombospondin type 1 motifs (ADAMTS1)",[2]; Genbank AK023795.1,0.43 Fold
same,"Fold: 3-hydroxyisobutyrate dehydrogenase, mitochondrial precursor",[2]; Genbank AK025558,0.00 Fold
same,Fold: NICE-5 protein,"[2]; Genbank AW779859, Cancer",0.48 Fold
same,"Fold: ASPLTFE3 type 2 fusion protein, ASPLTFE3 type 1 fusion protein mRNA in Sarcoma","[2]; Genbank AY034077.1, Cancer",0.46 Fold
same,"Fold: RASSF3 isoform A, putative tumor suppressor","[2]; Genbank AY062002.1, Cancer",2.88 Fold
same,"Fold: A kinase (PRKA) anchor protein 1, clone MGC: 1807",[2]; Genbank BC000729.1,2.00 Fold
same,"Fold: IMAGE: 3050107 mRNA, TBC1 domain family","[2]; Genbank BC001525, Cancer",0.67 Fold
same,"Fold: v-Myc avian myelocytomatosis viral related oncogene, neuroblastoma derived (MYCN)","[2]; Genbank BC002712.1, Cancer",3.99 Fold
same,Fold: aarF domain containing kinase 4,[2]; Genbank BC013114,2.30 Fold
same,"Fold: Similar to vitelliform macular dystrophy (Best disease, bestrophin)","[2]; Genbank BC041664.1, Eye Diseases",0.26 Fold
same,Fold: Thrombospondin 1 (THBS1),[2]; Genbank BE999967,0.42 Fold
same,Fold: SNRPN upstream reading frame (SNURF) in Prader-Willi and Angelman syndrome,"[2]; Genbank BF114870, Neuromuscular Diseases",0.39 Fold
same,"Fold: Novel MAFF (v-maf musculoaponeurotic fibrosarcoma (avian) oncogene family, protein F) LIKE protein","[2]; Genbank Cluster Incl. AL021977, Cancer",0.47 Fold
same,Fold: Butyrophilin (BTF3) - Milk Fat,"[2]; Genbank Cluster Incl. U90548, Autoimmune Diseases",2.15 Fold
same,"Fold: Facioscapulohumeral muscular dystrophy (FSHD) gene region, D4Z4 tandem repeat unit","[2]; Genbank D38024, Skeletal Diseases",2.43 Fold
same,"Fold: FYN oncogene related to SRC, FGR and YES, c-syn protooncogene","[2]; Genbank M14333.1, Cancer",0.44 Fold
same,Fold: Nephropontin inhibits urine crystals - kidney stones,"[2]; Genbank M83248.1, Storage and Metabolism Deficiencies",2.34 Fold
same,"Fold: FYN oncogene related to SRC, FGR and YES (FYN)","[2]; Genbank N20923, Cancer",0.13 Fold
same,"Fold: Sarcoglycan, gamma (35 kD dystrophin-associated glycoprotein) (Muscular Dystrophy)","[2]; Genbank NM_000231.1, Skeletal Diseases",0.04 Fold
same,Fold: Retinitis pigmentosa GTPase regulator (RPGR),"[2]; Genbank NM_000328.1, Eye Diseases",0.47 Fold
same,Fold: UDP-galactose-4-epimerase in epimerase-deficiency galactosemia,"[2]; Genbank NM_000403, Storage and Metabolism Deficiencies",0.66 Fold
same,"Fold: Sulfite oxidase (SUOX), nuclear gene encoding mitochondrial protein",[2]; Genbank NM_000456.1,2.11 Fold
same,"Fold: Galactosamine (N-acetyl)-6-sulfate sulfatase in Morquio syndrome, mucopolysaccharidosis type IVA","[2]; Genbank NM_000512, Storage and Metabolism Deficiencies",0.52 Fold
same,Fold: Regulatory factor X-associated protein (RFXAP)in bare lymphocyte syndrome,"[2]; Genbank NM_000538.1, Autoimmune Diseases",0.41 Fold
same,Fold: Endothelial cell growth factor 1 (platelet-derived)/Thymidine phosphorylase,[2]; Genbank NM_001953,0.42 Fold
same,Fold: Figroblast growth factor 2 (basic)(FGF2),[2]; Genbank NM_002006.1,0.35 Fold
same,Fold: Promyelocytic leukemia (PML),"[2]; Genbank NM_002675.1, Cancer",2.76 Fold
same,Fold: Transglutaminase 4 (prostate),"[2]; Genbank NM_003241, Cancer",0.24 Fold
same,Fold: Thrombospondin 4,[2]; Genbank NM_003248,0.58 Fold
same,Fold: Thromospondin 4 (THBS4),[2]; Genbank NM_03248.1,2.58 Fold
same,"Fold: Dysferlin, limb girdle muscular dystrophy 2B (autosomal recessive) (DYSF)","[2]; Genbank NM_003494.1, Skeletal Diseases",2.16 Fold
same,Fold: Peroxisomal biogenesis factor 3 (PEX3),"[2]; Genbank NM_003630.1, Autoimmune Diseases",0.43 Fold
same,Fold: Fibroblast growth factor 18 (FGF18),[2]; Genbank NM_003862.1,2.75 Fold
same,"Fold: Dystrophin (muscular dystrophy, Duchenne and Becker types), dystrophin Dp40 isoform (DMD)","[2]; Genbank NM_004019.1, Skeletal Diseases",2.76 Fold
same,"Fold: Vitelliform macular dystrophy (Best disease, bestrophin) (VMD2)","[2]; Genbank NM_004183.1, Eye Diseases",0.28 Fold
same,"Fold: Smcx homolog, X chromosome (mouse) in nonsyndromic X-linked mental retardation","[2]; Genbank NM_004187, Neuromuscular Diseases",0.61 Fold
same,Fold: Enhancer of zeste (Drosophila) homolog 2 (EZH2) (USP14),"[2]; Genbank NM_004456.1, Cancer",0.47 Fold
same,Fold: Peroxisomal biogenesis factor 14 (PEX14) in peroxisome biogenesis disorders,"[2]; Genbank NM_004565.1, Neuromuscular Diseases",2.06 Fold
same,"Fold: ATP-binding cassette, sub-family D (ALD), member 2 (ABCD2) in X-linked adrenoleukodystrophy","[2]; Genbank NM_005164.1, Neuromuscular Diseases",2.71 Fold
same,Fold: B-cell CLLlymphoma 3 (BCL3),"[2]; Genbank NM_005178.1, Cancer",2.05 Fold
same,"Fold: Neuroblastoma, suppression of tumorigenicity 1 (NBL1),","[2]; Genbank NM_005380.1, Cancer",3.07 Fold
same,"Fold: ATP-binding cassette, sub-family B (MDRTAP), member 6 (ABCB6), nuclear gene encoding mitochondrial protein",[2]; Genbank NM_005689.1,0.46 Fold
same,Fold: N-cym protein,"[2]; Genbank NM_006316, Cancer",2.38 Fold
same,Fold: Translocase of inner mitochondrial membrane 44 (yeast) homolog (TIM44),[2]; Genbank NM_006351.1,0.50 Fold
same,"Fold: Butyrophilin, subfamily 3, member A3 (BTN3A3)","[2]; Genbank NM_006994.2, Autoimmune Diseases",2.04 Fold
same,Fold: Keratocan (KERA) involved in cornea plana,"[2]; Genbank NM_007035.2, Eye Diseases",0.50 Fold
same,Fold: Disintegrin-like and metalloprotease (reprolysin type) with thrombospondin type 1 motif (ADAMTS5),[2]; Genbank NM_007038.1,0.23 Fold
same,Fold: Angiopoietin-like 2 (ANGPTL2),[2]; Genbank NM_012098.1,2.16 Fold
same,Fold: Nasopharyngeal carcinoma susceptibility protein (LZ16),"[2]; Genbank NM_013275.1, Cancer",0.41 Fold
same,Fold: Trichorhinophalangeal syndrome I gene (TRPS1),"[2]; Genbank NM_014112.1, Skeletal Diseases",0.36 Fold
same,Fold: Rhabdoid tumor deletion region protein 1 (RTDR1),"[2]; Genbank NM_014433.1, Cancer",2.20 Fold
same,"Fold: Amyotrophic lateral sclerosis 2 (juvenile) chromosome region, candidate 3 (ALS2CR3)","[2]; Genbank NM_015049.1, Neuromuscular Diseases",0.41 Fold
same,"Fold: Chromosome 5 open reading frame 4 (C5ORF4), putative tumor suppressor","[2]; Genbank NM_016348.1, Cancer",2.76 Fold
same,Fold: Niban protein (NIBAN) (Renal carcinogenesis),"[2]; Genbank NM_022083.1, Cancer",0.21 Fold
same,"Fold: RNA binding motif protein 5, putative tumor suppressor (LUCA15)","[2]; Genbank U23946.1, Cancer",0.43 Fold
same,"Fold: A kinase anchor protein S-AKAP84 mRNA, nuclear gene encoding mitochondrial protein",[2]; Genbank U34074.1,2.14 Fold
same,Fold: Unknown protein mRNA within the p53 intron 1,"[2]; Genbank U58658.1, Cancer",0.45 Fold
same,Inhibition of angiogenesis: endothelial tube branching,[3],dose-responsive inhibition
same,Growth inhibition of endothelial cells compared with A2780 and OVCAR-3,[4],much less growth inhibited
same,Angiogenesis (blood vessel density) in CAM assay,[5],inhibits angiogenesis
